Experimental data as given in patent US12492188B2, “1H-benzo[D]imidazole derivatives as TLR9 inhibitors for the treatment of fibrosis” (BRISTOL-MYERS SQUIBB COMPANY, priority 2020, dated 2025).
Read-outs that look alike come from different tables or passages of the source.

How the values were obtained:
Type in all cases: cell-based
human TLR9 = target: T1, human TLR9 (Homo sapiens, UniProt Q9NR96); test: TLR9 inhibition reporter assay (HEK-Blue cells, secreted embryonic alkaline phosphatase reporter)
T1 construct: host or cells: HEK-Blue cells (HEK293-derived reporter line)
T1 sequence (Q9NR96 26-1032): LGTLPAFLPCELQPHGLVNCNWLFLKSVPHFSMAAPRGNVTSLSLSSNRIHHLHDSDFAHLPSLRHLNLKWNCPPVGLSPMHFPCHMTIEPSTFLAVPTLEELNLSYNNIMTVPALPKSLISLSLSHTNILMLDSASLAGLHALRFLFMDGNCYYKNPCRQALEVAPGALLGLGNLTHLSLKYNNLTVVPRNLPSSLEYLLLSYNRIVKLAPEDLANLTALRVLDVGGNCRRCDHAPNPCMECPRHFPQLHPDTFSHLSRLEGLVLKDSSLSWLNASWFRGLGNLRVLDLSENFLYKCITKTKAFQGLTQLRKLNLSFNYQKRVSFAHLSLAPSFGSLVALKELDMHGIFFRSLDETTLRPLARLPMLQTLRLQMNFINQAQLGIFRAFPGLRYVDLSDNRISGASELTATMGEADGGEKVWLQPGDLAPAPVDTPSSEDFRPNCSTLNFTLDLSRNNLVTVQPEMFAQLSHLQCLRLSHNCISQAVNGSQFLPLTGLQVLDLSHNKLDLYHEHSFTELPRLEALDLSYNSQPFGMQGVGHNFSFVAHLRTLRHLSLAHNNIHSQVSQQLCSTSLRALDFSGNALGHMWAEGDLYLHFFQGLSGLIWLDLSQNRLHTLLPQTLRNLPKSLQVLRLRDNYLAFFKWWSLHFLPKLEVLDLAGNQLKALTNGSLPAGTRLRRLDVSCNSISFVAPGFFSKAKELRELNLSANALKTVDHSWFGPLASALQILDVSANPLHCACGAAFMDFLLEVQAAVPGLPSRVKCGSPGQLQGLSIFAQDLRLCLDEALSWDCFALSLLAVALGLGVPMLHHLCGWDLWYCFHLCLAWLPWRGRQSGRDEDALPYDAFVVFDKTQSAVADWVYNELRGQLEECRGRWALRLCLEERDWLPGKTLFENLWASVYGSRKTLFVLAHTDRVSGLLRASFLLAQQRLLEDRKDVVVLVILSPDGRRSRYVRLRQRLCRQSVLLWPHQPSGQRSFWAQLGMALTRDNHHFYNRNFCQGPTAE
How it was run: (§1)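 Inhibitors are tested in dose response (0.05 nM–50 μM) on HEK-Blue reporter cells expressing human TLR7, TLR8 or TLR9. After 30 min at room temperature, each line is stimulated with its own agonist (gardiquimod 7.5 μM, R848 15.9 μM or ODN2006 5 nM, final) and SEAP is measured 22 h later.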

human TLR7 = target: T2, human TLR7 (Homo sapiens, UniProt Q9NYK1); test: TLR7 inhibition reporter assay (HEK-Blue cells, secreted embryonic alkaline phosphatase reporter); conditions: HEK-Blue cells overexpressing human TLR7, stimulated with gardiquimod 7.5 μM; read-out: TLR 7 IC50
T2 construct: host or cells: HEK-Blue cells (HEK293-derived reporter line)
T2 sequence (Q9NYK1 27-1049): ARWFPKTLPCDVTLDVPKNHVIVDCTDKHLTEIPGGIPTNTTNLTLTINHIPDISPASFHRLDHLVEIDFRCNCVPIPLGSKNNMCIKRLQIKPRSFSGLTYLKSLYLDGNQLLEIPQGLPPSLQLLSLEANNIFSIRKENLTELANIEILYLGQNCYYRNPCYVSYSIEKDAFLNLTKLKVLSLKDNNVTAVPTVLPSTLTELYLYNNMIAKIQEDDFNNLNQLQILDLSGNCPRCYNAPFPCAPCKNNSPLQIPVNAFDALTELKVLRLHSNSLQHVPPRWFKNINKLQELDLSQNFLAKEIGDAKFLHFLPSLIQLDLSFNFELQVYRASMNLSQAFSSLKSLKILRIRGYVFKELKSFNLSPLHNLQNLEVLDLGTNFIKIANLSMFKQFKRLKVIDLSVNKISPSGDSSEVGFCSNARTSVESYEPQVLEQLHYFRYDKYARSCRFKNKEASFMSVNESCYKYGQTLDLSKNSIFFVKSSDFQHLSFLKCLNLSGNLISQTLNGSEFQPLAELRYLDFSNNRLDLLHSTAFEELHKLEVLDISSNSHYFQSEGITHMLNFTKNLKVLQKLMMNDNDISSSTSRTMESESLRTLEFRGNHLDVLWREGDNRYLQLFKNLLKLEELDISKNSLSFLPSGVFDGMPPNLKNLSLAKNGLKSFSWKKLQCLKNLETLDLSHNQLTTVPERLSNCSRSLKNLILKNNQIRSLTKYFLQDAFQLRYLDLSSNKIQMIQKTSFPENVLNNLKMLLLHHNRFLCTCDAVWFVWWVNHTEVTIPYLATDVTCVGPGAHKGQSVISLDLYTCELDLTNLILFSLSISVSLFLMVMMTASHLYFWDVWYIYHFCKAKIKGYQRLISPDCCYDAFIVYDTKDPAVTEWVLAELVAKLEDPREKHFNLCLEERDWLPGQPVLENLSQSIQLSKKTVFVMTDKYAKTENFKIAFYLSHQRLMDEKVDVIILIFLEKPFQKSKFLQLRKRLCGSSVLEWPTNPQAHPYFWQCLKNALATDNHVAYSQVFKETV
How it was run: as §1

human TLR8 = target: T3, human TLR8 (Homo sapiens, UniProt Q9NR97); test: TLR8 inhibition reporter assay (HEK-Blue cells, secreted embryonic alkaline phosphatase reporter); conditions: HEK-Blue cells overexpressing human TLR8, stimulated with R848 15.9 μM; read-out: TLR 8 IC50
T3 construct: host or cells: HEK-Blue cells (HEK293-derived reporter line)
T3 sequence (Q9NR97 27-1041): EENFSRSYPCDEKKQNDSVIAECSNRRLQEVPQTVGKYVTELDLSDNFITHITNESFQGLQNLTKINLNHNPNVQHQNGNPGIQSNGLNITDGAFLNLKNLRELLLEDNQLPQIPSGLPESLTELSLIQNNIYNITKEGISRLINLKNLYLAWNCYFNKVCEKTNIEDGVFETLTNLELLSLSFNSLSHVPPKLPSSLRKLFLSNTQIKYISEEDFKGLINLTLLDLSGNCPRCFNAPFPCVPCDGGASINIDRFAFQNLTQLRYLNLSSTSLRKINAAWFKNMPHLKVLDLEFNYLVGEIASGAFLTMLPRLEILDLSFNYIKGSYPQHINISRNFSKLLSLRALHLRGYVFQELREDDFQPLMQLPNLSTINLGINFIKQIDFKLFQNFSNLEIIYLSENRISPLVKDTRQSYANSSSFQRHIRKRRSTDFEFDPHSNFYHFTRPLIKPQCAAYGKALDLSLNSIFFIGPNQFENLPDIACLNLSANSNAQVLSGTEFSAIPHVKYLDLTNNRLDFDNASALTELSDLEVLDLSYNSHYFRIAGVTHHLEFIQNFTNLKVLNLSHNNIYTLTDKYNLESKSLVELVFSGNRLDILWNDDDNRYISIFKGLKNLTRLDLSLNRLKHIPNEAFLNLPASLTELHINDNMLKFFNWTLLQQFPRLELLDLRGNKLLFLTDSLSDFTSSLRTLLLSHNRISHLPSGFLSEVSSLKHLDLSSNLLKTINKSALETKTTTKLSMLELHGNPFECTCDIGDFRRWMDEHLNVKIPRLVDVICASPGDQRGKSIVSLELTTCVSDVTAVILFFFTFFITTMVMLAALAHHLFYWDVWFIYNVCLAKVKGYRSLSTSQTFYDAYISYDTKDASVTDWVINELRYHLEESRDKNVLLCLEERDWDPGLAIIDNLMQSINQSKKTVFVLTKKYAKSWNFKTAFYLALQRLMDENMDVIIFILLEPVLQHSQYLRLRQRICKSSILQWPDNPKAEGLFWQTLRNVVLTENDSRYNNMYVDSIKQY
How it was run: as §1

[1] = HEK-Blue cells overexpressing human TLR9, stimulated with ODN2006 5 nM, read-out: TLR 9 IC50
[2] = HEK-Blue cells overexpressing human TLR9, stimulated with ODN2006 5 nM, 22 hour incubation, reporter readout
[3] = HEK-Blue human TLR9 reporter cells

| IC50 (human TLR9) [nM] | IC50 (human TLR9; [1]) [nM] | IC50 (human TLR7) [nM] | IC50 (human TLR8) [nM] | IC50 (human TLR9; [2]) [nM] | IC50 (human TLR9; [3]) [nM] | SMILES |
| --- | --- | --- | --- | --- | --- | --- |
| 73 | 73 | 700 | > 50000 | – | – | Cn1c(-c2ccc(S(C)(=O)=O)cc2)nc2c(F)cc(C3CCN(C4CCN(C5CCOCC5)CC4)CC3)cc21 [Example 280, 4-fluoro-1-methyl-2-(4-(methylsulfonyl)phenyl)-6-(1′-(tetrahydro-2H-pyran-4-yl)-[1,4′-bipiperidin]-4-yl)-1H-benzo[d]imidazole] |
| – | 133 | 600 | 2000 | 130 | – | Cc1cc(-c2cc(F)cc(CN3CCC(N4CCC4)CC3)c2)cc2c1nc(-c1ccc(S(C)(=O)=O)cc1)n2C [Example 406, 6-(3-((4-(azetidin-1-yl)piperidin-1-yl)methyl)-5-fluorophenyl)-1,4-dimethyl-2-(4-(methylsulfonyl)phenyl)-1H-benzo[d]imidazole] |
| – | 91 | 4200 | 10200 | 91 | – | Cc1cc(-c2ccc(CN3CCC(N(C)C)CC3)c(F)c2)cc2c1nc(-c1ccc(S(C)(=O)=O)cc1)n2C [Example 390, 1-(4-(1,4-dimethyl-2-(4-(methylsulfonyl)phenyl)-1H-benzo[d]imidazol-6-yl)-2-fluorobenzyl)-N,N-dimethylpiperidin-4-amine] |
| – | 68 | 2200 | 2300 | 68 | – | CN(C)C1CCN(Cc2ccc(-c3ccc4nc(-c5ccc(C#N)cc5)n(C)c4c3)cc2)CC1 [Example 383, 4-(6-(4-((4-(dimethylamino)piperidin-1-yl)methyl)phenyl)-1-methyl-1H-benzo[d]imidazol-2-yl)benzonitrile] |
| – | 94 | 1400 | > 50000 | – | 94 | CC(C)CN1CCC(N2CCC(c3cc(F)c4nc(-c5ccc(S(C)(=O)=O)cc5)n(C5CC5)c4c3)CC2)CC1 [Example 319, 1-cyclopropyl-4-fluoro-6-(1′-isobutyl-[1,4′-bipiperidin]-4-yl)-2-(4-(methylsulfonyl)phenyl)-1H-benzo[d]imidazole] |
| – | 3.5 | 20500 | > 50000 | – | 3.5 | Cc1cc(C2CCN(C3CCCN(C4CCOCC4)CC3)CC2)cc2c1nc(-c1ccc(S(C)(=O)=O)cc1)n2C (single isomer, unassigned) [Example 307, 1,4-dimethyl-2-(4-(methylsulfonyl)phenyl)-6-(1-(1-(tetrahydro-2H-pyran-4-yl)azepan-4-yl)piperidin-4-yl)-1H-benzo[d]imidazole] |

More lines, now with the values behind:

| SMILES | IC50 (human TLR9) [nM] | IC50 (human TLR9; [1]) [nM] | IC50 (human TLR7) [nM] | IC50 (human TLR8) [nM] | IC50 (human TLR9; [2]) [nM] | IC50 (human TLR9; [3]) [nM] |
| --- | --- | --- | --- | --- | --- | --- |
| COc1ccc(-c2nc3c(C)cc(C4CCN(C5CCN(C(C)C)CC5)CC4)cc3[nH]2)cc1OC [Example 11, 2-(3,4-dimethoxyphenyl)-6-(1′-isopropyl-[1,4′-bipiperidin]-4-yl)-4-methyl-1H-benzo[d]imidazole] | – | – | 5000 | > 50000 | 33 | – |
| CC(C)N1C2CCC1CC(N1CCC(c3ccc4c(nc(-c5ccc(S(C)(=O)=O)cc5)n4C)c3F)CC1)C2 (single isomer, unassigned) [Example 89, 4-fluoro-5-(1-(8-isopropyl-8-azabicyclo[3.2.1]octan-3-yl)piperidin-4-yl)-1-methyl-2-(4-(methylsulfonyl)phenyl)-1H-benzo[d]imidazole] | – | 162 | > 50000 | > 50000 | 160 | – |
| Cc1cc(C2CCN(C3CCN(CC(C)C)CC3)CC2)cc2[nH]c(-c3ccc(S(C)(=O)=O)cc3)nc12 [Example 58, 6-(1′-isobutyl-[1,4′-bipiperidin]-4-yl)-4-methyl-2-(4-(methylsulfonyl)phenyl)-1H-benzo[d]imidazole tris(2,2,2-trifluoroacetate)] | – | 47 | 3100 | > 50000 | 47 | – |
| Cn1c(-c2ccc(S(C)(=O)=O)cc2)nc2cc(C3CCN(C4CC5CCC(C4)N5CC4CC4)CC3)c(F)cc21 (single isomer, unassigned) [Example 250, 5-(1-(8-(cyclopropylmethyl)-8-azabicyclo[3.2.1]octan-3-yl)piperidin-4-yl)-6-fluoro-1-methyl-2-(4-(methylsulfonyl)phenyl)-1H-benzo[d]imidazole] | 110 | 110 | 36700 | > 50000 | – | – |
| CC(C)CN1CCC(N2CCC(c3cc(F)c4c(c3)nc(-c3ccc(S(C)(=O)=O)cc3)n4C)CC2)CC1 [Example 201, 7-fluoro-5-(1′-isobutyl-[1,4′-bipiperidin]-4-yl)-1-methyl-2-(4-(methylsulfonyl)phenyl)-1H-benzo[d]imidazole] | 97 | 97 | 14400 | > 50000 | – | – |
| Cc1cc(C2CCN(C3CCN(CC(C)C)CC3)CC2)cc2[nH]c(-c3ccnc4ccccc34)nc12 [Example 59, 4-(6-(1′-isobutyl-[1,4′-bipiperidin]-4-yl)-4-methyl-1H-benzo[d]imidazol-2-yl)quinoline] | – | 100 | 3800 | > 50000 | 100 | – |
